This is an account of results in paper PMC12859765, “Phosphatidylcholine with C26:0 moiety, a precursor of a diagnostic marker for X-ALD, is synthesized by LPLAT10/LPEAT2” (Journal of Lipid Research, 2025).

Molecules are shown by their SMILES.

This assay has as its target T1, LPLAT8/LPCAT1 (Homo sapiens, UniProt Q8NF37).
T1 construct: transiently expressed in HEK 293T; 100,000 g membrane fraction
T1 sequence (Q8NF37 1-534): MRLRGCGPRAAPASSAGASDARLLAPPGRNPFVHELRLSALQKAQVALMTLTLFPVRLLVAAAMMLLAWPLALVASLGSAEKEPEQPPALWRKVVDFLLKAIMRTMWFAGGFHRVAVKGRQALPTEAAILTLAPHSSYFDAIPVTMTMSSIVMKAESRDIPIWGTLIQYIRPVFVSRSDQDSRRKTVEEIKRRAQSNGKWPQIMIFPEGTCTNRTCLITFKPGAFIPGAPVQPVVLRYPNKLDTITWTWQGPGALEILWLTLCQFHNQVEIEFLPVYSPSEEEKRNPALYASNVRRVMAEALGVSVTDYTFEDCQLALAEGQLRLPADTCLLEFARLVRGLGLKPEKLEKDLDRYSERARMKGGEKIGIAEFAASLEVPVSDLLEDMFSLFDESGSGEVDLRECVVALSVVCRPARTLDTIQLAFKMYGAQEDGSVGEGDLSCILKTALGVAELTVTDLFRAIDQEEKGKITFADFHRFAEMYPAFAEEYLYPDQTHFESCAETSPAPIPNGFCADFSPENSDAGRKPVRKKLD
The assay can be described thus: LC-MS/MS acyltransferase assay, membrane fraction. The assay is classed as biochemical. The conditions noted are these: pH 7.4, 37 °C.

Consider `CCCCCCCCCCCCCCCCCCCCCCCCCC(=O)SCCNC(=O)CCNC(=O)[C@H](O)C(C)(C)COP(=O)(O)OP(=O)(O)OC[C@H]1O[C@@H](n2cnc3c(N)ncnc32)[C@H](O)[C@@H]1OP(=O)(O)O` [C26:0-CoA], for which the “LC-MS/MS acyltransferase assay, membrane fraction” value (10 µM acyl-CoA, acceptor 2-16:0-d31-LPC 20 µM) is “LPLAT8/LPCAT1, which has very high homology with LPLAT10 in terms of amino acid sequence, showed slight activity”.

In the case of `CCCCCCCCCCCCCCCC(=O)O[C@H](CO)COP(=O)([O-])OCC[N+](C)(C)C` [2-16:0-d31-LPC], for the setting “donor C26:0-CoA 10 µM, LPC 20 µM, labelled compound”, the “LC-MS/MS acyltransferase assay, membrane fraction” value is “C26:0-CoA transfer activity was not significantly different between 2-acyl-LPC and 1-acyl-LPC”.
